According to PubChem BioAssay (NCI):
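Test compounds were applied to cells in 96-well plates for 48 hours at 5 doses. TGI denotes the concentration required for complete inhibition of growth.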

Tests used:
Assay in all cases: NCI tumour cell line growth inhibition, 48 h
[1] = system: A498 renal
[2] = system: A549 NSCLC
[3] = system: HCC-2998 colon
[4] = system: HCT-15 colon
[5] = system: HS 578T breast
[6] = system: MCF7 breast
[7] = system: NCI-H522 lung
[8] = system: OVCAR-5 ovarian
[9] = system: RPMI-8226 leukemia
[10] = system: SF-539 CNS
[11] = system: SK-MEL-2 melanoma
[12] = system: SK-OV-3 ovarian
[13] = system: SNB-75 CNS
[14] = system: U251 CNS
[15] = system: UACC-62 melanoma

Row | SMILES | TGI [1] [µM] | TGI [2] [µM] | TGI [3] [µM] | TGI [4] [µM] | TGI [5] [µM] | TGI [6] [µM] | TGI [7] [µM] | TGI [8] [µM] | TGI [9] [µM] | TGI [10] [µM] | TGI [11] [µM] | TGI [12] [µM] | TGI [13] [µM] | TGI [14] [µM] | TGI [15] [µM]
1 | O=C(/C=C/c1ccccc1)Oc1cccc(Br)c1 | > 100 | > 100 | > 100 | 42.2 | > 100 | 47.4 | 29.2 | > 100 | 40.2 | > 100 | > 100 | > 100 | > 100 | > 100 | > 100
2 | COc1ccc(Cn2c3ccc([N+](=O)[O-])cc3c(=O)n2Cc2ccccn2)cc1 | > 100 | > 100 | > 100 | > 100 | > 100 | > 100 | > 100 | > 100 | > 100 | > 100 | > 100 | > 100 | > 100 | > 100 | > 100
3 | COc1cc(C2c3cc(OC)c(OC)c(O)c3C(=O)C3CCC(=O)N32)cc(OC)c1OC (stereo not given) | > 100 | > 100 | > 100 | > 100 | > 100 | > 100 | 77.6 | > 100 | > 100 | > 100 | > 100 | > 100 | > 100 | > 100 | > 100
4 | CCOC(=O)C(NC(=O)CC)(Nc1ccc(S(=O)(=O)Nc2ccc(OC)nn2)cc1)C(F)(F)F (stereo not given) | > 100 | > 100 | > 100 | > 100 | > 100 | > 100 | > 100 | > 100 | > 100 | > 100 | > 100 | > 100 | > 100 | > 100 | > 100
5 | O=C1C=C(O)c2c(O)ccc(O)c2C1=O | > 100 | > 100 | > 100 | > 100 | > 100 | > 100 | > 100 | > 100 | > 100 | > 100 | > 100 | > 100 | > 100 | > 100 | > 100
6 | COC12C=CC(CC1)C(C)(C)C2OS(C)(=O)=O (stereo not given) | > 100 | > 100 | > 100 | > 100 | > 100 | > 100 | > 100 | > 100 | > 100 | > 100 | > 100 | > 100 | > 100 | > 100 | > 100
7 | CC(=O)OCC1OC(SC2=NC(=O)/C(=C/c3ccccc3)S2)C(OC(C)=O)C(OC(C)=O)C1OC(C)=O (stereo not given) | 81.2 | > 100 | > 100 | > 100 | 75.7 | 52.2 | 80.6 | > 100 | 66.3 | 45.7 | > 100 | > 100 | 44.7 | 91 | 87.2
8 | COc1cc(/C=C/C(=N\NC(=S)NN)c2sc(NNC(C)=O)nc2C)ccc1O | > 100 | > 100 | > 100 | > 100 | > 100 | > 100 | > 100 | > 100 | > 100 | > 100 | > 100 | > 100 | > 100 | > 100 | > 100
9 | COc1ccc(N2N=NN(C(C)C)/C2=C(/Cl)c2nnnn2-c2ccc(OC)cc2)cc1 | 30.5 | 33.6 | 34.4 | 31.4 | 52.6 | 22.6 | 5.48 | 26.9 | > 61.2 | 33.5 | 29.6 | 32.8 | 26.5 | 33.7 | 28.7
10 | Nc1ccccc1OCCCOc1ccccc1N | > 100 | > 100 | > 100 | > 100 | > 100 | > 100 | > 100 | > 100 | > 100 | > 100 | > 100 | > 100 | > 100 | > 100 | > 100
11 | CN1C=COC1N=C1CCCCC1 (stereo not given) | > 100 | > 100 | > 100 | > 100 | > 100 | > 100 | > 100 | > 100 | > 100 | > 100 | > 100 | > 100 | > 100 | > 100 | > 100
12 | CC1C(C#N)(C#N)C(C#N)=C(N)C1(C)[N+](=O)[O-] (stereo not given) | > 100 | > 100 | > 100 | > 100 | > 100 | > 100 | > 100 | > 100 | > 100 | > 100 | > 100 | > 100 | > 100 | > 100 | > 100
13 | O=c1c2cc(I)ccc2nc(SCc2nnco2)n1Cc1ccccc1 | > 100 | > 100 | > 100 | > 100 | > 100 | > 100 | > 100 | > 100 | > 100 | > 100 | > 100 | > 100 | > 100 | > 100 | > 100
